Test [1] deals with T1, Aurora kinase A (Homo sapiens) (UniProt O14965).
T1 sequence (whole entry): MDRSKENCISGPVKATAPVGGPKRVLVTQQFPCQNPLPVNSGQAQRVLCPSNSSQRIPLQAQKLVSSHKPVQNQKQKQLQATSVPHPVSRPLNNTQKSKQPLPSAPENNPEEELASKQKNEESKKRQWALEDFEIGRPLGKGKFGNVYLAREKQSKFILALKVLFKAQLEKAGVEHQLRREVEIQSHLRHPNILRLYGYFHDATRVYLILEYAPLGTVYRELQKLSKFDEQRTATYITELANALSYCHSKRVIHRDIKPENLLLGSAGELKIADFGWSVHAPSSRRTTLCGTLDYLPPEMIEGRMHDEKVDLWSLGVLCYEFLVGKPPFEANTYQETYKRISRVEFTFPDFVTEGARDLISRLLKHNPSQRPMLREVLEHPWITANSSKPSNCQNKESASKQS
Kind of test: Selectivity interaction (Ambit KINOMEscan and KiNATiv profiling in Jurkat cells) EUB0000090b STK6. The note with it: at 1 µM. In kind it is cell-based.

The target of test [2] is T2, Inhibitor of nuclear factor kappa-B kinase subunit beta (Homo sapiens) (UniProt O14920).
T2 sequence (whole entry): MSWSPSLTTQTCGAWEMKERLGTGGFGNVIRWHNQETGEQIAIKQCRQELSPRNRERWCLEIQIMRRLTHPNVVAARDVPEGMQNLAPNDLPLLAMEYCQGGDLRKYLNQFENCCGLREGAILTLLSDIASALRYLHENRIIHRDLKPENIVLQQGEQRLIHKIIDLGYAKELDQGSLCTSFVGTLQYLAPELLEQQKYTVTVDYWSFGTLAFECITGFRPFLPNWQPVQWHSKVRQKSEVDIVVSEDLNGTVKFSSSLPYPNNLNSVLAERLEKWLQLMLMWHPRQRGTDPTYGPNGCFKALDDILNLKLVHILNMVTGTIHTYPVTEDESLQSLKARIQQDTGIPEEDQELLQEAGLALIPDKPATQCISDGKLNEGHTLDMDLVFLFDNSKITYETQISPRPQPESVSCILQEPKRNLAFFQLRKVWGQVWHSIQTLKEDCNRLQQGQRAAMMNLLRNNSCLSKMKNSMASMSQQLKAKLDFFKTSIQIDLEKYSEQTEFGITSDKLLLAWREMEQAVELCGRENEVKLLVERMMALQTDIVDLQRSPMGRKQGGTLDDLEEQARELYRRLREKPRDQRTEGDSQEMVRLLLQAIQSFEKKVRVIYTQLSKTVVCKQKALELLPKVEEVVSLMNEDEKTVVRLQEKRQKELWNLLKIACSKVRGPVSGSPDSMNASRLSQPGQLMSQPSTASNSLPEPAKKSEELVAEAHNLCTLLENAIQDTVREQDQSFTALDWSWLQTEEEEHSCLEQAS
Nature of the test: Selectivity interaction (KinomeScan (DiscoverX)) EUB0001619a IKBKB. The note with it: at 1 µM.

For test [3], the target named is T3, Serine/threonine-protein kinase tousled-like 1 (Homo sapiens) (UniProt Q9UKI8).
T3 sequence (whole entry): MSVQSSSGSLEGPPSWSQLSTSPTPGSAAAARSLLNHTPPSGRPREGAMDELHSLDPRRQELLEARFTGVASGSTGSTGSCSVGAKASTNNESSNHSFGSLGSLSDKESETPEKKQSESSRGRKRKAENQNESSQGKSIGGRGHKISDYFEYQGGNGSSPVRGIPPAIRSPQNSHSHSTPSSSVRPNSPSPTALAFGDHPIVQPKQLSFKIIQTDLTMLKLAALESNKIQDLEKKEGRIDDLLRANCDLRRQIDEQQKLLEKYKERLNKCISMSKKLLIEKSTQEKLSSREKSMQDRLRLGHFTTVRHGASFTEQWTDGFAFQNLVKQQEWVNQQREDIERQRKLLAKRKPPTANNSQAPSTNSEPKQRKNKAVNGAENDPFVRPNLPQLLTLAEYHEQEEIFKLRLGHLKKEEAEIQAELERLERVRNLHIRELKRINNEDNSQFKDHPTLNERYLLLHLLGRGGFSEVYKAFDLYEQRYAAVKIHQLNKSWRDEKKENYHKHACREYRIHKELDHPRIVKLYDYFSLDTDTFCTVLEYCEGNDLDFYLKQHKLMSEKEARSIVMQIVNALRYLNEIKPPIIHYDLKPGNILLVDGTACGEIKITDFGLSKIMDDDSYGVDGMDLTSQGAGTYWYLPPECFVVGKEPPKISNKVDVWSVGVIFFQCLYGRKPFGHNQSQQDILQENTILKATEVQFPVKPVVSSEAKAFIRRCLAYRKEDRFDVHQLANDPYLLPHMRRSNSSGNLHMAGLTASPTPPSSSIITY
Nature of the test: Selectivity interaction (ProQinase) EUB0000171b TLK1.

Test [4] concerns the target T4, Phosphatidylinositol 5-phosphate 4-kinase type-2 gamma (Homo sapiens) (UniProt Q8TBX8).
T4 sequence (whole entry): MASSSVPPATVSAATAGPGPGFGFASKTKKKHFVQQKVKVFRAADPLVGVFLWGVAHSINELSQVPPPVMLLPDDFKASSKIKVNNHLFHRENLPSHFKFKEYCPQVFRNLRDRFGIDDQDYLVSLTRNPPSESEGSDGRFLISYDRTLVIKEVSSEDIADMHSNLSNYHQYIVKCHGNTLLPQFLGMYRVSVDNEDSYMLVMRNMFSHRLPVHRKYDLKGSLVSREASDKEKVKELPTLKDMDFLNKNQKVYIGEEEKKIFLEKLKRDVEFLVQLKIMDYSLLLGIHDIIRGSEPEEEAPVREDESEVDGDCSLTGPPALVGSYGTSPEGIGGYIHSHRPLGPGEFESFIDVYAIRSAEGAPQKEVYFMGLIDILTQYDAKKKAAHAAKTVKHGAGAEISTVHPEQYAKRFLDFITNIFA
Nature of the test: Selectivity interaction (KinomeScan (DiscoverX)) EUB0001550a PIP4K2C. The note with it: at 1 µM.

Consider `CN(C)C/C=C/C(=O)Nc1ccc(C(=O)N2CCCC(Nc3ncc(Cl)c(-c4c[nH]c5ccccc45)n3)C2)cc1` (stereo not given), for which the % of control in test [1] is 96%.
For the compound `N#Cc1cccc(-c2c[nH]c3ncnc(N4CCOCC4)c23)c1`, the % of control in test [2] amounted to 90%.
Turning to `C=CC(=O)Nc1cccc(C(=O)Nc2ccc(Nc3cc(-c4[nH]c(SC)nc4C)ccn3)cc2)c1`, the % of control was 97% in test [3] (at 1 µM) and 90% in test [3] (at 5 µM).
The compound `CN(C)CC#Cc1ccc2[nH]c3c(c2c1)-c1nc(N)ncc1CCC3` returned a % of control in test [4] of 53%.

For the origin of these results see ChEMBL document CHEMBL5465560, “Selectivity Literature for EUbOPEN Chemogenomic Library” (2024).
